From ChEMBL document CHEMBL1128850, “Synthesis and qsar of dequalinium analogues AS K+ channel blockers. investigations on the role of the 4-amino group” (Bioorg Med Chem Lett, 1995)

How the values were obtained:
Assay type in all cases: functional
Rattus norvegicus [1] = species on record: Rattus norvegicus; experiment: Ability to inhibit the hyperpolarization (AHP) in cultured rat sympathetic neurons; conditions: Sympathetic neuron
Rattus norvegicus [2] = species on record: Rattus norvegicus; experiment: The equi-effective molar ratio of the concentration to that of dequalinium that cause 50% inhibition of the hyperpolarization (AHP)
Rattus norvegicus [3] = species on record: Rattus norvegicus; experiment: Ratio of the negative logarithmic concentration to that of dequalinium that cause 50% inhibition of the hyperpolarization (AHP)

Row | SMILES | IC50 (Rattus norvegicus [1]) [nM] | EMR (Rattus norvegicus [2]) | pEMR (Rattus norvegicus [3])
1 | CC(=O)Nc1cc[n+](CCCCCCCCCC[n+]2ccc(NC(C)=O)c3ccccc32)c2ccccc12 | 4500 | 5.5 | -0.74
2 | c1ccc2c(c1)ccc[n+]2CCCCCCCCCC[n+]1cccc2ccccc21 | – | 15 | -1.18
3 | Cc1cc(N)c2ccccc2[n+]1CCCCCCCCCC[n+]1c(C)cc(N)c2ccccc21.[Cl-].[Cl-] [DEQUALINIUM CHLORIDE] | – | 1 | 0
4 | Nc1cc[n+](CCCCCCCCCC[n+]2ccc(N)c3ccccc32)c2ccccc12 | 1400 | 1.3 | -0.11
5 | c1ccc(Oc2cc[n+](CCCCCCCCCC[n+]3ccc(Oc4ccccc4)c4ccccc43)c3ccccc23)cc1 | 2700 | 6.5 | -0.81
6 | Cc1cc[n+](CCCCCCCCCC[n+]2ccc(C)c3ccccc32)c2ccccc12 | 15000 | 26 | -1.41
7 | c1ccc(Nc2cc[n+](CCCCCCCCCC[n+]3ccc(Nc4ccccc4)c4ccccc43)c3ccccc23)cc1 | 2400 | 3.4 | -0.53
8 | CN(C)c1cc[n+](CCCCCCCCCC[n+]2ccc(N(C)C)c3ccccc32)c2ccccc12 | 1400 | 1.4 | -0.15
